Reference: article PMC9114115, “Property space mapping of Pseudomonas aeruginosa permeability to small molecules” (Scientific Reports, 2022)
Where “and” joins values, the source holds several entries; their conditions need not be identical. Identical values can stand only once. Like-named read-outs stand apart in the source and are kept apart here.

Tests used:
P. aeruginosa PAO1 = assay: MIC by two-fold dilution, wild type PAO1; assay type: cell-based, Pseudomonas aeruginosa; conditions: Pseudomonas aeruginosa
Outline: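 Media differed between series: LB or MOPS-M9. Hyperporinated strains express FhuA from PLAC at the attTn7 site, and the efflux-deficient ones are ΔmexAB ΔmexCD ΔmexXY.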

P. aeruginosa PAO1-Pore = assay: MIC by two-fold dilution, hyperporinated PAO1-Pore; assay type: cell-based, Pseudomonas aeruginosa; conditions: for MICs: PAO1-Pore, LB broth, Table S2; for MIC: Pseudomonas aeruginosa
Outline: (§1)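 Read-out: MIC. Method: two-fold serial dilution in LB broth or MOPS-M9, by series. Culture: 37 °C, aerated. Genotypes: PAO1 attTn7::PLAC-fhuA; ΔmexAB ΔmexCD ΔmexXY attTn7::PLAC-fhuA.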

P. aeruginosa PΔ3 = assay: microbe, parasite or virus in culture; assay type: cell-based, Pseudomonas aeruginosa; conditions: Pseudomonas aeruginosa
Experimental: In all experiments, P. aeruginosa PAO1-Pore (PAO1 attTn7::PLAC-fhuA) and PΔ3-Pore (ΔmexAB ΔmexCD ΔmexXY attTn7::PLAC-fhuA) strains were used[29]. Strains were routinely grown in Luria–Bertani (LB) or MOPS-M9 medium at 37 °C with aeration. MICs shown in Tables 1 and 2 were determined by a two-fold dilution method in LB broth and MOPS-M9 medium, respectively, following the previously described protocol.

P. aeruginosa PΔ3-Pore = assay: MIC by two-fold dilution, barrierless PΔ3-Pore; assay type: cell-based, Pseudomonas aeruginosa; conditions: for MIC: Pseudomonas aeruginosa; for MICs: P∆3-Pore, Table S2
Outline: as §1

[1] = system: four strains of P. aeruginosa; assay type: cell-based, Pseudomonas aeruginosa
Experimental: Cells were sub-cultured (50–100 mL) 1:100 in fresh LB broth in two flasks per strain. At OD600 0.3 (~ 1.5 to 2 h of incubation), the expression of the pore was induced with 0.1 mM IPTG (final concentration) in one of the flasks and cells were grown for additional 1 to 1.5 h (OD600 1- 1.5). Cells were collected by centrifugation at room temperature (RT) and washed in PMG Buffer (50 mM KPi, pH 7.0, 1 mM MgSO4, 0.4% glucose, prepared fresh) and concentrated 20x (i.e., 100 mL culture resuspended in 5 ml of PMG Buffer with final OD600 ~ 20–30). Assays were performed in 96-well 1.0 µm Glass Fiber Type B filters plates (Millipore). […]
[…] Filter plates were dried, removed from the vacuum manifold and left in the hood overnight to dry completely.

P. aeruginosa PAO1 cells = assay: LC–MS quantification of intracellular accumulation, PAO1; conditions: 10-80 µM;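 also: slope of accumulation versus external concentration fitted as a line through zero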
Outline: (§2)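 Cells grown in MOPS-M9 (pH 7.2) with 1% glycerol, Pore strains induced with 0.1 mM IPTG, concentrated 10X in spent medium and exposed to 10, 20, 40, 80 µM compound for 1 and 40 min at RT. Filter-collected cells extracted with methanol; compound quantified by positive-ion LC–MS against calibration in PAO1 cell extract, no-cell filter controls.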

[2] = system: P. aeruginosa PAO1-Pore cells; assay: LC–MS quantification of intracellular accumulation, PAO1-Pore; conditions: 10-80 µM;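 also: slope of accumulation versus external concentration fitted as a line through zero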
Outline: as §2

P. aeruginosa PΔ3 cells = conditions: 10-80 µM;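 also: slope of accumulation versus external concentration fitted as a line through zero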
Outline: as §2

[3] = system: P. aeruginosa PΔ3-Pore cells; assay: LC–MS quantification of intracellular accumulation, PΔ3-Pore; conditions: 10-80 µM;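 also: slope of accumulation versus external concentration fitted as a line through zero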
Outline: as §2

[4] = system: P. aeruginosa hyperporinated strains; assay: Vancomycin susceptibility spot assay on minimal medium; assay type: cell-based, Pseudomonas aeruginosa; conditions: MOPS-M9 medium, in the presence of inducer
Experimental: PAO1-Pore and PΔ3-Pore were grown at 37 °C overnight with shaking at 225 rpm in 50 mM MOPS-M9 (pH 7.2) Minimal Medium supplemented with 1% glycerol[42],[43].

[5] = PAO1, LB broth, Table 1, read-out: MIC

For `O=C(O)c1cn(C2CC2)c2cc(N3CCNCC3)c(F)cc2c1=O` [OU-0001036, Ciprofloxacin], the MIC (P. aeruginosa PAO1; [5]) was 0.19 µM and 0.06 µg/mL, the MIC (P. aeruginosa PAO1; PAO1, MOPS-M9 medium, read-out: MICs) was 1 µM and 0.33 µg/mL and the “effect of hyperporination on antibacterial activity” value (P. aeruginosa PAO1-Pore; MIC PAO1 vs PAO1-Pore) was “two-fold”. The MICs (P. aeruginosa PAO1-Pore) was 0.09, the MIC (P. aeruginosa PAO1-Pore; PAO1) was 0.09 µM and 0.03 µg/mL and the MIC (P. aeruginosa PAO1-Pore; PAO1, read-out: MICs) was 0.0625 µM and 0.02 µg/mL. The MIC (P. aeruginosa PΔ3) was 0.05 µM and 0.02 µg/mL, the MIC (P. aeruginosa PΔ3; read-out: MICs) was 0.25 µM and 0.08 µg/mL and the MIC (P. aeruginosa PΔ3-Pore; PΔ3-Pore, LB broth, Table 1) was 0.02 µM and 0.01 µg/mL. The MIC (P. aeruginosa PΔ3-Pore; read-out: MICs, P∆3-Pore, MOPS-M9 medium) was 0.031 µM and 0.01 µg/mL, the MICs (P. aeruginosa PΔ3-Pore; LB broth) was 0.02 and the “effect of efflux inactivation and hyperporination on accumulation” value ([1]; radioactively labeled compound, four strains, 20 min) was “inactivation of efflux led to significantly higher levels of accumulation”. The “Concentration slopes of accumulation, PAO1_1 min” value (P. aeruginosa PAO1 cells; 1 min incubation) was 1.15, the “Concentration slopes of accumulation, PAO1_40 min” value (P. aeruginosa PAO1 cells; 40 min incubation) was 2.47 and the “Concentration slopes of accumulation, PAO1-Pore_1 min” value ([2]; 1 min incubation) was 3.53. For the same molecule, the “Concentration slopes of accumulation, PAO1-Pore_40 min” value ([2]; 40 min incubation) was 3.32, the “Concentration slopes of accumulation, PΔ3_1 min” value (P. aeruginosa PΔ3 cells; 1 min incubation) was 2.99 and the “Concentration slopes of accumulation, PΔ3_40 min” value (P. aeruginosa PΔ3 cells; 40 min incubation) was 1.33. The “Concentration slopes of accumulation, PΔ3-Pore_1 min” value ([3]; 1 min incubation) was 2.77 and the “Concentration slopes of accumulation, PΔ3-Pore_40min” value ([3]; 40 min incubation) was 2.77.

With `CN(C)[C@@H]1C(O)=C(C(N)=O)C(=O)[C@@]2(O)C(O)=C3C(=O)c4c(O)cccc4[C@@](C)(O)[C@H]3C[C@@H]12` [Tetracycline] the MIC (P. aeruginosa PAO1; [5]) was 12.5 µM and 5.56 µg/mL, the MICs (P. aeruginosa PAO1-Pore) was 0.39-1.56 and the MIC (P. aeruginosa PAO1-Pore; PAO1) was 0.39 µM and 0.17 µg/mL. For the same molecule, the MIC (P. aeruginosa PΔ3) was 0.78 µM and 0.35 µg/mL, the MIC (P. aeruginosa PΔ3-Pore; PΔ3-Pore, LB broth, Table 1) was 0.78 µM and 0.35 µg/mL and the MICs (P. aeruginosa PΔ3-Pore; LB broth) was 0.78. For the same molecule, the “effect of efflux inactivation and hyperporination on accumulation” value ([1]; not told) was “equally affected by inactivation of efflux and hyperporination”.

In the case of `CN[C@H](CC(C)C)C(=O)N[C@H]1C(=O)N[C@@H](CC(N)=O)C(=O)N[C@H]2C(=O)N[C@H]3C(=O)N[C@H](C(=O)N[C@H](C(=O)O)c4cc(O)cc(O)c4-c4cc3ccc4O)[C@H](O)c3ccc(c(Cl)c3)Oc3cc2cc(c3O[C@@H]2O[C@H](CO)[C@@H](O)[C@H](O)[C@H]2O[C@H]2C[C@](C)(N)[C@H](O)[C@H](C)O2)Oc2ccc(cc2Cl)[C@H]1O` [vancomycin], the “susceptibility in spot assay” value [4] is reported as “highly susceptible”.
